# Columns and labels:
# Type in all cases: physicochemical
# [1] = Solubility of Form A in physiologically relevant media (37° C.)
# [2] = 2-hrs equilibrium solubility in FaSSIF and FeSSIF (version 2); settings: thermodynamic from solid
# Procedure: (§1) A summary of baseline solid state characterization results of crystalline (R)-5-carbamoylpyridin-3-yl-2-methyl-4-(3-(trifluoromethoxy)benzyl)piperazine-1-carboxylate Form A, including pKa, partition coefficient (log D7.4) measurement and 2-hrs equilibrium solubility in FaSSIF and FeSSIF (version 2) are provided herein. […] Log D7.4 was measured with the solvent system of pH 7.4 phosphate buffer and n-octanol by shake-flask method. Meanwhile, 2-hrs equilibrium solubility of (R)-5-carbamoylpyridin-3-yl-2-methyl-4-(3-(trifluoromethoxy)benzyl)piperazine-1-carboxylate in FaSSIF and FeSSIF (version 2) was measured to be 0.12 and 0.080 mg/mL.
# [3] = Solution stability test of Form A in physiologically relevant media at 37° C.; design: unit not given here
# Procedure: A solution stability test of Form A was performed to assess substantial degradation of (R)-5-carbamoylpyridin-3-yl-2-methyl-4-(3-(trifluoromethoxy)benzyl)piperazine-1-carboxylate in physiologically relevant media. A solution of (R)-5-carbamoylpyridin-3-yl-2-methyl-4-(3-(trifluoromethoxy)benzyl)piperazine-1-carboxylate (1 mg/mL) was prepared in acetonitrile/water (50/50 v/v). Test medium (1990 μL) was added to a vial. Test media evaluated included buffers pH 1-8, simulated gastric fluid (SGF), fasted state simulated intestinal fluid (FaSSIF), and fed state simulated intestinal fluid (FeSSIF). Stock solution (10 μL) was added to the vial containing the medium. This mixture was stirred to mix well and transferred to a HPLC vial, which was placed in the autosampler maintained at 37° C. The vial was injected repeatedly every 4 hr for 24 hr.
# [4] = Interconversion study: competitive slurry of Form A and B; settings: from RT to 50° C.
# Procedure: An interconversion study of crystal forms was performed. To understand the thermodynamic stability relationship between Form A and B, competitive slurry experiments were performed at RT and 50° C. in water and toluene. Prior to the study, Form A was used to saturate the corresponding solvent before it was filtered to obtain a near-saturated solution. Equal amounts of Form A and B samples were weighed and then mixed with the prepared near-saturated solution to form a new suspension, which was stirred magnetically (˜1000 rpm) at RT and 50° C.
# [5] = Log D7.4 by shake-flask method (pH 7.4 phosphate buffer and n-octanol); settings: n-octanol/pH 7.4 phosphate buffer
# Procedure: as §1
structure (smiles),measurement,setting,value
"C[C@@H]1CN(Cc2cccc(OC(F)(F)F)c2)CCN1C(=O)Oc1cncc(C(N)=O)c1 [Form A, (R)-5-carbamoylpyridin-3-yl-2-methyl-4-(3-(trifluoromethoxy)benzyl)piperazine-1-carboxylate]",solubility,"[1]; HCl/NaCl buffer pH 1.0, simulated gastric fluid, thermodynamic from solid, pH 1.0 HCl/NaCl buffer, final measured pH 1.47",> 20000 µg/mL
same,solubility,"[1]; acetate buffer pH 4, aqueous buffer, thermodynamic from solid, pH 4 Acetate buffer, final measured pH 4.18",696 µg/mL
same,solubility,"[1]; acetate buffer pH 5, aqueous buffer, thermodynamic from solid, pH 5 Acetate buffer, final measured pH 5.14",91 µg/mL
same,solubility,"[1]; aqueous buffer, thermodynamic from solid, pH 4 (0.0001N HCl), final measured pH 7.78",11 µg/mL
same,solubility,"[1]; pH 4.9, aqueous buffer, thermodynamic from solid, pH 3 (0.001N HCl), final measured pH 4.90",57 µg/mL
same,solubility,"[1]; pH 8.1, thermodynamic from solid, Water, final measured pH 8.10",12 µg/mL
same,solubility,"[1]; phosphate buffer pH 2.5, aqueous buffer, thermodynamic from solid, pH 2.5 Phosphate buffer, final measured pH 3.44",4330 µg/mL
same,solubility,"[1]; phosphate buffer pH 3, pH 4.2, aqueous buffer, thermodynamic from solid, pH 3 Phosphae buffer, final measured pH 4.20",1250 µg/mL
same,solubility,"[1]; phosphate buffer pH 6.8, aqueous buffer, thermodynamic from solid, pH 6.8 Phosphate buffer, final measured pH 6.88",7 µg/mL
same,solubility,"[1]; phosphate buffer pH 8.0, pH 8.1, aqueous buffer, thermodynamic from solid, pH 8.0 Phosphate buffer, final measured pH 8.10",5 µg/mL
same,solubility,"[1]; simulated gastric fluid, thermodynamic from solid, SGF with pepsin, final measured pH 1.75",> 20000 µg/mL
same,solubility,"[1]; simulated gastric fluid, thermodynamic from solid, pH 1 (0.1N HCl), final measured pH 1.48",> 20000 µg/mL
same,solubility,"[1]; simulated gastric fluid, thermodynamic from solid, pH 2 (0.01N HCl), final measured pH 3.55",3860 µg/mL
same,solubility,"[1]; thermodynamic from solid, FaSSIF, final measured pH 6.48",146 µg/mL
same,solubility,"[1]; thermodynamic from solid, FeSSIF, final measured pH 5.17",1020 µg/mL
same,solubility thermodynamic at 2 h,"[2]; FaSSIF (version 2), fassif",120 µg/mL
same,solubility thermodynamic at 2 h,"[2]; FeSSIF (version 2), fessif",80 µg/mL
same,Solution chemical stability data,"[3]; FaSSIF, 37° C., 0 hr",100.0
same,Solution chemical stability data,"[3]; FaSSIF, 37° C., 4 hr",100.6
same,Solution chemical stability data,"[3]; FaSSIF, 37° C., 8 hr",100.2
same,Solution chemical stability data,"[3]; FaSSIF, 37° C., 12 hr",100.5
same,Solution chemical stability data,"[3]; FaSSIF, 37° C., 16 hr",100.3
same,Solution chemical stability data,"[3]; FaSSIF, 37° C., 20 hr",100.0
same,Solution chemical stability data,"[3]; FaSSIF, 37° C., 24 hr",100.0
same,Solution chemical stability data,"[3]; FeSSIF, 37° C., 0 hr",100.0
same,Solution chemical stability data,"[3]; FeSSIF, 37° C., 4 hr",99.6
same,Solution chemical stability data,"[3]; FeSSIF, 37° C., 8 hr",100.2
same,Solution chemical stability data,"[3]; FeSSIF, 37° C., 12 hr",99.7
same,Solution chemical stability data,"[3]; FeSSIF, 37° C., 16 hr",99.6
same,Solution chemical stability data,"[3]; FeSSIF, 37° C., 20 hr",99.8
same,Solution chemical stability data,"[3]; FeSSIF, 37° C., 24 hr",99.7
same,Solution chemical stability data,"[3]; SGF, 37° C., 0 hr",100.0
same,Solution chemical stability data,"[3]; SGF, 37° C., 4 hr",100.2
same,Solution chemical stability data,"[3]; SGF, 37° C., 8 hr",100.1
same,Solution chemical stability data,"[3]; SGF, 37° C., 12 hr",99.2
same,Solution chemical stability data,"[3]; SGF, 37° C., 16 hr",99.7
same,Solution chemical stability data,"[3]; SGF, 37° C., 20 hr",100.4
same,Solution chemical stability data,"[3]; SGF, 37° C., 24 hr",99.6
same,Solution chemical stability data,"[3]; pH = 1, 37° C., 0 hr",100.0
same,Solution chemical stability data,"[3]; pH = 1, 37° C., 4 hr",99.6
same,Solution chemical stability data,"[3]; pH = 1, 37° C., 8 hr",100.3
same,Solution chemical stability data,"[3]; pH = 1, 37° C., 12 hr",100.3
same,Solution chemical stability data,"[3]; pH = 1, 37° C., 16 hr",99.9
same,Solution chemical stability data,"[3]; pH = 1, 37° C., 20 hr",101.9
same,Solution chemical stability data,"[3]; pH = 1, 37° C., 24 hr",100.5
same,Solution chemical stability data,"[3]; pH = 3, 37° C., 0 hr",100.0
same,Solution chemical stability data,"[3]; pH = 3, 37° C., 4 hr",99.8
same,Solution chemical stability data,"[3]; pH = 3, 37° C., 8 hr",99.8
same,Solution chemical stability data,"[3]; pH = 3, 37° C., 12 hr",98.5
same,Solution chemical stability data,"[3]; pH = 3, 37° C., 16 hr",99.3
same,Solution chemical stability data,"[3]; pH = 3, 37° C., 20 hr",99.6
same,Solution chemical stability data,"[3]; pH = 3, 37° C., 24 hr",99.5
same,Solution chemical stability data,"[3]; pH = 5.0, 37° C., 0 hr",100.0
same,Solution chemical stability data,"[3]; pH = 5.0, 37° C., 4 hr",100.9
same,Solution chemical stability data,"[3]; pH = 5.0, 37° C., 8 hr",101.7
same,Solution chemical stability data,"[3]; pH = 5.0, 37° C., 12 hr",99.9
same,Solution chemical stability data,"[3]; pH = 5.0, 37° C., 16 hr",100.7
same,Solution chemical stability data,"[3]; pH = 5.0, 37° C., 20 hr",99.9
same,Solution chemical stability data,"[3]; pH = 5.0, 37° C., 24 hr",99.6
same,Solution chemical stability data,"[3]; pH = 6.8, 37° C., 0 hr",100.0
same,Solution chemical stability data,"[3]; pH = 6.8, 37° C., 4 hr",100.2
same,Solution chemical stability data,"[3]; pH = 6.8, 37° C., 8 hr",100.8
same,Solution chemical stability data,"[3]; pH = 6.8, 37° C., 12 hr",100.1
same,Solution chemical stability data,"[3]; pH = 6.8, 37° C., 16 hr",100.0
same,Solution chemical stability data,"[3]; pH = 6.8, 37° C., 20 hr",99.6
same,Solution chemical stability data,"[3]; pH = 6.8, 37° C., 24 hr",99.0
same,Solution chemical stability data,"[3]; pH = 8.0, 37° C., 0 hr",100.0
same,Solution chemical stability data,"[3]; pH = 8.0, 37° C., 4 hr",101.3
same,Solution chemical stability data,"[3]; pH = 8.0, 37° C., 8 hr",100.5
same,Solution chemical stability data,"[3]; pH = 8.0, 37° C., 12 hr",99.7
same,Solution chemical stability data,"[3]; pH = 8.0, 37° C., 16 hr",100.1
same,Solution chemical stability data,"[3]; pH = 8.0, 37° C., 20 hr",98.7
same,Solution chemical stability data,"[3]; pH = 8.0, 37° C., 24 hr",99.4
same,Thermodynamic stability relationship between Form A and B,[4],thermodynamically more stable than Form B
same,logD,[5],3.76
